For two compounds, EC50 results are on record in BindingDB's records for PubMed 36166643 (University of Santiago De Compostela, 2022).

This assay can be described thus: Induction of CYP24A1 (unknown orgin) transcriptional activity trasfected in human MCF7 cells incuabted for 48 hrs by luciferase reporter gene assay.

Broadly, the EC50 is the concentration needed to bring the measured effect to its halfway point. A lower EC50 goes with an effect from little substance. `C=C1/C(=C\C=C(/CCCCCC(C)(C)O)c2cccc(CCCCCC(C)(C)O)c2)C[C@@H](O)C[C@@H]1O` yielded an EC50 of 5.6 nM. Under `C=C1/C(=C\C=C\c2cc(CCCCCC(C)(C)O)cc(CCCCCC(C)(C)O)c2)C[C@@H](O)C[C@@H]1O` stands 3 nM.
